Experiment: xn = mol fraction of the nth substance listed
Conditions: 101 kPa, Liquid

COc1cc2c(cc1O)CC1c3c(cc(O)c(OC)c3-2)CCN1C (configuration not stated) [boldine] + CCO
mass density [kg/m3]
Conditions | x1 = 0.00151 | x1 = 0.0036 | x1 = 0.00737 | x1 = 0.01217 | x1 = 0.0177 | x1 = 0.02066 | x1 = 0.02425 | x1 = 0.02539
283.15 K | 801.79 | 806.58 | 815.68 | 826.69 | 838.83 | 845.25 | 852.81 | 855.28
288.15 K | 797.54 | 802.33 | 811.43 | 822.44 | 834.59 | 841.01 | 848.57 | 851.04
293.15 K | 793.27 | 798.06 | 807.16 | 818.18 | 830.32 | 836.74 | 844.3 | 846.79
298.15 K | 788.97 | 793.77 | 802.87 | 813.89 | 826.03 | 832.46 | 840.02 | 842.51
303.15 K | 784.65 | 789.45 | 798.55 | 809.57 | 821.71 | 828.14 | 835.71 | 838.2
308.15 K | 780.3 | 785.1 | 794.2 | 805.23 | 817.37 | 823.79 | 831.35 | 833.86
313.15 K | 775.91 | 780.71 | 789.81 | 800.84 | 813 | 819.42 | 826.97 | 829.49
318.15 K | 771.49 | 776.27 | 785.38 | 796.41 | 808.57 | 815 | 822.56 | 825.07
323.15 K | 767.01 | 771.79 | 780.9 | 791.93 | 804.1 | 810.54 | 818.09 | 820.6
328.15 K | 762.47 | 767.24 | 776.37 | 787.4 | 799.57 | 806.01 | 813.57 | 816.08
333.15 K | 757.86 | 762.64 | 771.76 | 782.8 | 794.98 | 801.42 | 808.99 | 811.5

COc1cc2c(cc1O)CC1c3c(cc(O)c(OC)c3-2)CCN1C (configuration not stated) [boldine] + CO
mass density [kg/m3]
Conditions | x1 = 0.00099 | x1 = 0.002 | x1 = 0.00302 | x1 = 0.00406 | x1 = 0.00513 | x1 = 0.00788 | x1 = 0.01077 | x1 = 0.01696 | x1 = 0.02389
283.15 K | 804.63 | 808.15 | 811.7 | 815.24 | 818.83 | 827.92 | 837.15 | 856.15 | 875.72
288.15 K | 799.96 | 803.48 | 807.04 | 810.59 | 814.19 | 823.28 | 832.53 | 851.55 | 871.15
293.15 K | 795.27 | 798.79 | 802.35 | 805.91 | 809.51 | 818.62 | 827.88 | 846.93 | 866.56
298.15 K | 790.57 | 794.1 | 797.66 | 801.22 | 804.83 | 813.95 | 823.21 | 842.29 | 861.96
303.15 K | 785.86 | 789.39 | 792.96 | 796.52 | 800.14 | 809.27 | 818.54 | 837.63 | 857.34
308.15 K | 781.12 | 784.66 | 788.23 | 791.8 | 795.42 | 804.56 | 813.85 | 832.96 | 852.69
313.15 K | 776.35 | 779.89 | 783.47 | 787.05 | 790.67 | 799.82 | 809.13 | 828.27 | 848.03
318.15 K | 771.55 | 775.1 | 778.68 | 782.26 | 785.89 | 795.05 | 804.37 | 823.55 | 843.34
323.15 K | 766.71 | 770.26 | 773.84 | 777.43 | 781.07 | 790.25 | 799.58 | 818.78 | 838.61
328.15 K | 761.83 | 765.38 | 768.97 | 772.57 | 776.2 | 785.4 | 794.75 | 813.97 | 833.84
333.15 K | 756.89 | 760.45 | 764.05 | 767.65 | 771.29 | 780.5 | 789.86 | 809.11 | 829.02
